Data reported in ChEMBL document CHEMBL5046285, “Probing Fluorinated Motifs onto Dual AChE-MAO B Inhibitors: Rational Design, Synthesis, Biological Evaluation, and Early-ADME Studies” (J Med Chem, 2022).
≈ marks a conversion by molar mass, not a printed value. Calls of active or inactive are those of the source. No cut-off for these calls is given here.

Columns and labels:
[1] = 1-Octanol/PBS buffer distribution coefficient, log D of the compound at 1 uM measured after 24 hrs at pH 7.4 by shake flask based HPLC-ES-MS/MS analysis; assay type: physicochemical
[2] = Cytotoxicity against human HepG2 cells assessed as reduction in cell viability incubated for 4 hrs by CellTiter-Glo luminescence assay; assay type: toxicity, cell-based
[3] = Kinetic aqueous solubility of the compound in PBS incubated for 2 hrs under mild shaking at pH 7.4 by UV- vis spectrophotometric analysis; assay type: physicochemical; conditions: read-out: Kinetic_solubility
[4] = Cytotoxicity against human SH-SY5Y cells assessed as reduction in cell viability incubated for 4 hrs by CellTiter-Glo luminescence assay; assay type: toxicity, cell-based
[5] = target: Cytochrome P450 3A4 (Homo sapiens, UniProt P08684); experiment: Inhibition of human recombinant CYP3A4 expressed in baculosomes by fluorescent homogenous assay; assay type: ADME
[6] = target: T1, MAO-A (Homo sapiens, UniProt P21397); experiment: in vitro; conditions: recombinant MAO-A expressed in supersomes, probe kynuramine
T1 sequence (P21397 whole entry): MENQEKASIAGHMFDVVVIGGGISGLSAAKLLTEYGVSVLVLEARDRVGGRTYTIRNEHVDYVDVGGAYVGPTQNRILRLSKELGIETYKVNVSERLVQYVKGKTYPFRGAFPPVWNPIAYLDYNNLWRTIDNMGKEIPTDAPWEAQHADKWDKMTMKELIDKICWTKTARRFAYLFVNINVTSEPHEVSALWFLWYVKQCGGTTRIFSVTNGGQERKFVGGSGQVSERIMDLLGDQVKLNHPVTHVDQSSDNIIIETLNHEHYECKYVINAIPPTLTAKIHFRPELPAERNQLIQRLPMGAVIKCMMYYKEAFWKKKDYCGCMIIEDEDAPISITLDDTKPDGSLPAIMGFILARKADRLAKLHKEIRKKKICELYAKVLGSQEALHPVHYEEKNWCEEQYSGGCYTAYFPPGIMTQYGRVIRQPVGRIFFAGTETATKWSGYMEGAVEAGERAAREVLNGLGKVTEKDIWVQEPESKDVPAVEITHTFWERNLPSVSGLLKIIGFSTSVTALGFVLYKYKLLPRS

[7] = Intrinsic clearance in mouse liver microsomes at 0.5 uM incubated upto 30 mins in presence of NADPH measured per mg protein by LC/MS/MS analysis; assay type: ADME, Microsome; conditions: read-out: CLH
[8] = target: T2, Acetylcholinesterase (Homo sapiens, UniProt P22303)
Description: Inhibition of human recombinant AChE by Ellman's spectrophotometric assay

[9] = target: Cholinesterase (Equus caballus, UniProt P81908)
Description: Inhibition of horse serum BChE by Ellman's spectrophotometric assay

[10] = target: T3, Amine oxidase [flavin-containing] B (Homo sapiens, UniProt P27338); experiment: Inhibition of human recombinant MAO-B expressed in supersomes assessed as inhibition of 4-hydroxyquinoline formation using kynuramine as substrate by spectrophotometric method
T3 sequence (P27338 whole entry): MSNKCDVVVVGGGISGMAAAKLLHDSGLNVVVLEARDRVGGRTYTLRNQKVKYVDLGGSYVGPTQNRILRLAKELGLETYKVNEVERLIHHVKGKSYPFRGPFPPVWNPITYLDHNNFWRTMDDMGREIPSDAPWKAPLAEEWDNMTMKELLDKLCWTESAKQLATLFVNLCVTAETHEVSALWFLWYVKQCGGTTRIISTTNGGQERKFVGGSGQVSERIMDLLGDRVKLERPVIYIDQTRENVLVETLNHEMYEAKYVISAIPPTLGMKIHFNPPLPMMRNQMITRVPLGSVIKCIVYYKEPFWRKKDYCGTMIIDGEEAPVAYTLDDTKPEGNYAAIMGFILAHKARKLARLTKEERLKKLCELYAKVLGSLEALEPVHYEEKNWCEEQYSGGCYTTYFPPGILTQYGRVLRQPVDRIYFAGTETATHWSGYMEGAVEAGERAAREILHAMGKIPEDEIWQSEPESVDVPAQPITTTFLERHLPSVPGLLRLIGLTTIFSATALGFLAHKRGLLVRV

[11] = Microsomal stability in mouse liver microsomes assessed as half life at 0.5 uM incubated upto 30 mins in presence of NADPH by LC/MS/MS analysis; assay type: ADME, Microsome
[12] = species on record: Homo sapiens; experiment: Selectivity for human recombinant MAO-B expressed in supersomes over human recombinant MAO-A expressed in supersomes
[13] = target: T3, Amine oxidase [flavin-containing] B
Description: Inhibition of human recombinant MAO-B expressed in supersomes assessed as inhibition of 4-hydroxyquinoline formation using kynuramine as substrate by spectrofluorimetric analysis

[14] = Chromatographic hydrophobicity index of the compound in ammonium acetate buffer at pH 7.4 by RP-HPLC analysis; assay type: physicochemical
[15] = Efflux ratio of apparent permeability across basolateral to apical side over apical to basolateral side in human Caco-2 cells; assay type: ADME, cell-based
[16] = tested on: SH-SY5Y; experiment: Neuroprotective activity against NMDA -induced cytotoxicity in human SH-SY5Y cells assessed as increase in cell viability at 0.1 to 5 uM co-incubated with NMDA for 24 hrs by MTT assay; assay type: functional, cell-based; conditions: dose 0.1-5 µM
[17] = Effective permeability of the compound in PBS buffer at pH 7.4 by PAMPA-BBB assay; assay type: ADME; conditions: read-out: Peff
[18] = Apparent permeability across apical to basolateral side in human Caco-2 cells at 10 uM incubated for 60 mins by HPLC-MS/MS method; assay type: ADME, cell-based
[19] = tested on: SH-SY5Y; experiment: Neuroprotective activity against H2O2-induced neurotoxicity in human SH-SY5Y cells assessed as increase in cell viability at 1 to 5 uM co-incubated with H2O2 for 24 hrs by MTT assay; assay type: functional, cell-based; conditions: dose 1-5 µM
[20] = tested on: HepG2; experiment: Cytotoxicity against human HepG2 cells assessed as reduction in cell viability at 100 uM incubated for 4 hrs by CellTiter-Glo luminescence assay; assay type: toxicity, cell-based; conditions: hepg2, 4 h
[21] = tested on: SH-SY5Y; experiment: Neuroprotection against Amyloid beta-induced cytotoxicity in human SH-SY5Y cells assessed as increase in cell viability at 0.1 to 1 uM co-incubated with Amyloid beta for 24 hrs by MTT assay; assay type: functional, cell-based; conditions: dose 0.1-1 µM
[22] = target: T3, Amine oxidase [flavin-containing] B; experiment: Competitive inhibition of human recombinant MAO-B expressed in supersomes using kynuramine as substrate by Lineweaver-Burk plot analysis
[23] = target: Cholinesterase (Equus caballus) (UniProt P81908); experiment: Inhibition of horse serum BChE at 10 uM by Ellman's spectrophotometric assay; assay type: cell-free
[24] = Microsomal stability in human liver microsomes assessed as half life at 0.5 uM incubated upto 60 mins in presence of NADPH by LC/MS/MS analysis; assay type: ADME, Microsome
[25] = target: Albumin (Homo sapiens, UniProt P02768); experiment: Binding affinity to human serum albumin assessed as dissociation […] constant by surface plasmon resonance assay; assay type: ADME, cell-free
[26] = target: T2, Acetylcholinesterase; experiment: Mixed type inhibition of human AChE by Lineweaver-Burk plot analysis
[27] = Apparent permeability across basolateral to apical side in human Caco-2 cells at 10 uM incubated for 60 mins by HPLC-MS/MS method; assay type: ADME, cell-based
[28] = tested on: SH-SY5Y; experiment: Cytotoxicity against human SH-SY5Y cells assessed as reduction in cell viability at 100 uM incubated for 4 hrs by CellTiter-Glo luminescence assay; assay type: toxicity, cell-based
[29] = Intrinsic clearance in human liver microsomes at 0.5 uM incubated upto 60 mins in presence of NADPH measured per mg protein by LC/MS/MS analysis; assay type: ADME, Microsome; conditions: read-out: CLH
[30] = target: T3, Amine oxidase [flavin-containing] B; experiment: Reversible inhibition of human recombinant MAO-B expressed in supersomes using kynuramine as substrate at 10 nM co-incubated with enzyme and measured over 6 hrs by spectrophotometric method; conditions: 0.01 µM

T2 sequence (P22303 whole entry): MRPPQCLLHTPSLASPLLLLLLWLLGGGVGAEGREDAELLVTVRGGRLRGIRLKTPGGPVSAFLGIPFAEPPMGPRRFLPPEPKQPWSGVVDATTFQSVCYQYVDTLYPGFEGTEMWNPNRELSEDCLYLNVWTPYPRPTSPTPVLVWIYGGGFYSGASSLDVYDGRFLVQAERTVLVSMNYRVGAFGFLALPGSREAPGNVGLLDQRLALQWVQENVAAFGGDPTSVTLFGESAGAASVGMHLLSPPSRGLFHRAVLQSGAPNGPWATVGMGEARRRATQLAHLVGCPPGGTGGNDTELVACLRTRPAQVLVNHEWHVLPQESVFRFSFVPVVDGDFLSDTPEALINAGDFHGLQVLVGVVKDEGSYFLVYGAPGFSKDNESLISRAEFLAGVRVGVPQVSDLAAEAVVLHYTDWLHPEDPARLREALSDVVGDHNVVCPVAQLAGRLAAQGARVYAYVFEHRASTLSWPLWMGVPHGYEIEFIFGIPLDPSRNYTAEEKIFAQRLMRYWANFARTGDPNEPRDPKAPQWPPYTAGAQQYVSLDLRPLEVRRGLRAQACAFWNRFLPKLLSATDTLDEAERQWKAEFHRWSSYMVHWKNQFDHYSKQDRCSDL
Chain of Cytochrome P450 3A4 (P08684 whole entry): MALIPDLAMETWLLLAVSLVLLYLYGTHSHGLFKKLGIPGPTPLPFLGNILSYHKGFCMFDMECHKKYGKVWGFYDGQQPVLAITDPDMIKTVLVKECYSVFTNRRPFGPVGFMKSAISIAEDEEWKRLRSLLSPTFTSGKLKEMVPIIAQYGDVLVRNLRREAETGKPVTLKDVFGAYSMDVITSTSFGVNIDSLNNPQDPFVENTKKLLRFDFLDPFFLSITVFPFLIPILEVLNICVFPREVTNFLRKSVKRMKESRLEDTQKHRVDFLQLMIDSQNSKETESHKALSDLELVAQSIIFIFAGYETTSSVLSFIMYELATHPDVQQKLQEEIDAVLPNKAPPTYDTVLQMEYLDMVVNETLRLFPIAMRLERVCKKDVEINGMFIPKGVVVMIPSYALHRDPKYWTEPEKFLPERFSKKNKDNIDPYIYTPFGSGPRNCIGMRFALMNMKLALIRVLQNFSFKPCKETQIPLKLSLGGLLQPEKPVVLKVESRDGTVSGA
Chain of Cholinesterase (P81908 whole entry): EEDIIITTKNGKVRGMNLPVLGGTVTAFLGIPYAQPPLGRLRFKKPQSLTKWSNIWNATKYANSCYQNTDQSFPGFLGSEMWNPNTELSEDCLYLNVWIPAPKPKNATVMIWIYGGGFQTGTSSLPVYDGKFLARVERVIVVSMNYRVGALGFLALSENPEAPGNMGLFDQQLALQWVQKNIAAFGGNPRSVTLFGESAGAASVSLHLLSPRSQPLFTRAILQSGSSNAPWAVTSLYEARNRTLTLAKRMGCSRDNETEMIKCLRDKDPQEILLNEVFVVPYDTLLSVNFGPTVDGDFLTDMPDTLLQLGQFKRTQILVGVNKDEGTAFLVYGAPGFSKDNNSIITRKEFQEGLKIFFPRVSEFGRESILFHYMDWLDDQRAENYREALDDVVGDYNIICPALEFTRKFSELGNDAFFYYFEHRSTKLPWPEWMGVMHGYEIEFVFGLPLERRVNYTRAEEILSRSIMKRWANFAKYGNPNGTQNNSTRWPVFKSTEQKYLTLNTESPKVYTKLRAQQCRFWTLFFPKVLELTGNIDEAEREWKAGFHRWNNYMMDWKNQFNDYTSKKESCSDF
Chain of Cholinesterase (Equus caballus) (P81908 whole entry): as above
Chain of Albumin (P02768 whole entry): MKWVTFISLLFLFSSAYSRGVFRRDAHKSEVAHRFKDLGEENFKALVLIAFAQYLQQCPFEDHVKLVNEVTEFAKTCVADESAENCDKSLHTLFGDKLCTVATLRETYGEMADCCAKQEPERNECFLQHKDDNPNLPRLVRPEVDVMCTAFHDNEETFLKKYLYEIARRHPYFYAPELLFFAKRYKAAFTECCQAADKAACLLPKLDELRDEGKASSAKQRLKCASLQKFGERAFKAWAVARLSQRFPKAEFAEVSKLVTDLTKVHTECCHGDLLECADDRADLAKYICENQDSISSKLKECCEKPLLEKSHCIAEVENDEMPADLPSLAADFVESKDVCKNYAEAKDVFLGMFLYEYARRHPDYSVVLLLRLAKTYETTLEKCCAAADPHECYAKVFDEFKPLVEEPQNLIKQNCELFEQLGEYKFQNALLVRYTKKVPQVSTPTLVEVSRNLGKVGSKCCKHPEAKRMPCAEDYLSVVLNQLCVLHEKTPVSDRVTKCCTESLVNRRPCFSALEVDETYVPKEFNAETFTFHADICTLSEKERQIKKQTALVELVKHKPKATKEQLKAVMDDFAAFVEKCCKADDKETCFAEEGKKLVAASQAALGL

## CN(Cc1ccc(COc2ccc3c(CO)cc(=O)oc3c2)cc1)Cc1cccc(F)c1
[1]
  logD at 24 h, 1 µM: 4.29
[2]
  IC50 at 4 h: 40000 nM
[3]
  solubility kinetic at 2 h: 2.4 µM (≈ 1.04 µg/mL)
[4]
  IC50 at 4 h: 40000 nM
[5]
  IC50: 3500 nM
[6]
  inhibition at 10 µM: 47%
[7]
  microsomal CLint at 0.5 µM: 37.7 µL/min/mg
[8]
  IC50: 330 nM
[9]
  IC50: 1100 nM
[10]
  inhibition (INH): Active
[11]
  half-life at 0.5 µM: 36.9 min
[12]
  Selectivity Index: > 1000
[13]
  IC50: 10 nM
[14]
  CHI: > 100

## CN(CCCC(F)F)Cc1ccc(COc2ccc3c(CO)cc(=O)oc3c2)cc1
[15]
  efflux ratio: 0.6
[1]
  logD at 24 h, 1 µM: 2.48
[16]
  Activity: Active
[17]
  Papp: > 14 ×10⁻⁶ cm/s
[18]
  Papp A→B at 1 h, 10 µM: 25 ×10⁻⁶ cm/s
[3]
  solubility kinetic at 2 h: 201 µM (≈ 83.9 µg/mL)
[19]
  Activity: Active
[5]
  IC50: 10000 nM
[20]
  Activity: Non-Toxic
[6]
  inhibition at 10 µM: 34%
[21]
  Activity: Active
[7]
  microsomal CLint at 0.5 µM: 55.6 µL/min/mg
[22]
  Ki: 13 nM
[23]
  inhibition: 34%
[24]
  half-life at 0.5 µM: 34.9 min
[25]
  Kd: 11300 nM
[8]
  IC50: 550 nM
[26]
  Ki: 2000 nM
[27]
  Papp B→A at 1 h, 10 µM: 16 ×10⁻⁶ cm/s
[10]
  inhibition (INH): Active
[11]
  half-life at 0.5 µM: 25 min
[12]
  Selectivity Index: > 1250
[13]
  IC50: 8.2 nM
[14]
  CHI: 76.4
[28]
  Activity: Non-Toxic
[29]
  microsomal CLint at 0.5 µM: 39.8 µL/min/mg
[30]
  inhibition (INH): Active
